Experiment [1] relates to PGE2 production in celiac macrophages. As to the kind of experiment: PGE2 production of celiac macrophages from orally dosed mice. In kind it is in vivo. To be noted: 1% suspension in olive oil, forced oral administration once a day, 12 times in 15 days, 10 or 30 ml/kg, ddY mice. The method, then: The compound (7) in Example 1 was suspended in olive oil (Nacalai Tesque) at a concentration of 1% to prepare a 1% suspension of the compound (7). The 1% suspension of the compound (7) prepared as described above was administered to ddY mice (Japan SLC, female, 7 weeks old) by forced oral administration once a day, 12 times in 15 days, at a dosage of 10 or 30 ml/kg. Tap water was similarly administered by forced oral administration as a control. Each group consisted of 3 mice. Thereafter, 4 ml of RPMI 1640 medium (Bio Whittaker, Code. 12-702F) containing 10% fetal calf serum was intraperitoneally injected. Media removed from 3 mice after extensive massage were combined to obtain celiac cells. The celiac cells were suspended in RPMI 1640 medium containing 10% fetal calf serum at a concentration of 10^6 cells/ml. 500 μl of the suspension was added to each well of a 48-well microtiter plate and the plate was incubated at 37° C. for 2 hours in the presence of 5% CO2. Adhesive cells obtained by removing the culture supernatant were used as celiac macrophages. […] After the plate was incubated for additional 12 hours, the amount of prostaglandin E2 (PGE2) was measured. […] After cultivation, the amount of prostaglandin E2 in the culture supernatant was measured using Prostaglandin E2 ELISA Kit (Neogen, Code. 404110). […]

Experiment [2] deals with HL-60 (ATCC CCL-240) cells. As to the kind of experiment: Apoptosis morphology in HL-60 cells under optical microscope. The experiment is classed as cell-based, Human. To be noted: 24 hours. The method, then: (§1) HL-60 (ATCC CCL-240) cells were cultured at 37° C. in RPMI 1640 medium (Bio Whittaker) containing 10% fetal calf serum (JRH) which had been treated at 56° C. for 30 minutes and suspended in RPMI 1640 medium at a concentration of 2.5×10^5 cells/4.5 ml. […] each of aqueous solutions of the compound (2) at a concentration of 10, 50 or 100 mM, the compound (7) at a concentration of 500, 1000 or 1500 μM, the compound (9) at a concentration of 750, 1500 or 3000 μM, the compound (11) at a concentration of 750, 1500 or 3000 μM, or the compound (14) at a concentration of 750, 1500 or 3000 μM was added to 4.5 ml of the suspension. The mixtures were incubated at 37° C. for 24 hours in the presence of 5% CO2. The cultured cells were examined under an optical microscope.

Experiment [3] concerns HL-60 (ATCC CCL-240) cells. As to the kind of experiment: Measurement of apoptotic cells using FACScan. The experiment is classed as cell-based, Human. The settings on record: HL-60 cells, cultured for 24 or 48 hours. The protocol: as §1, with “CO2. Measurement of apoptotic cells using FACScan as described in Saibo Kogaku, Bessatsu (Cell Technology, Suppl.) Jikken Protocol Series: Apoptosis Jikken Protocol (Experimental Protocol Series: Experimental Protocols for Apoptosis) (Shujun-sha) pp. 129-130 and analysis of DNA fragmentation as described in Bio Manual UP Series: […] Apoptosis Jikken-ho (Bio Manual UP Series: Current Experimental Methods for Apoptosis) (Yodo-sha) pp. 61-63 were carried out using cells” for “CO2. The”, “cultured for 24 or 48 hours in the same manner as that described above.” for “cultured cells were examined under an optical microscope.”

This is an account of results in US6518302B1, “Remedies” (Takara Shuzo Co., Ltd., priority 1999, dated 2003).

Regarding `O=C[C@H](O)[C@H]1OC[C@@H](O)[C@@H]1OC(=O)c1ccccc1` [Compound (7), 4-O-benzoyl-3,6-anhydro-D-galactose], the “activity of inhibiting PGE2 production in celiac macrophages (LPS)” value in experiment [1] is on record as “remarkable activity of inhibiting PGE2 production”. The “final concentration at which condensation of nuclei, shrinking of cells and formation of apoptotic bodies were observed” value in experiment [2] is no less than 100 µM. Besides, in experiment [3], the “final concentration at which apoptotic cells were observed” value was no less than 100 µM.
